The results in this text go back to US8178543B2, “Bi- and tricyclic fused pyrimidines as tyrosine kinase inhibitors” (Takeda Pharmaceutical Company Limited, priority 2004, dated 2012).

T1 sequence (P04626 676-1255 limits assumed): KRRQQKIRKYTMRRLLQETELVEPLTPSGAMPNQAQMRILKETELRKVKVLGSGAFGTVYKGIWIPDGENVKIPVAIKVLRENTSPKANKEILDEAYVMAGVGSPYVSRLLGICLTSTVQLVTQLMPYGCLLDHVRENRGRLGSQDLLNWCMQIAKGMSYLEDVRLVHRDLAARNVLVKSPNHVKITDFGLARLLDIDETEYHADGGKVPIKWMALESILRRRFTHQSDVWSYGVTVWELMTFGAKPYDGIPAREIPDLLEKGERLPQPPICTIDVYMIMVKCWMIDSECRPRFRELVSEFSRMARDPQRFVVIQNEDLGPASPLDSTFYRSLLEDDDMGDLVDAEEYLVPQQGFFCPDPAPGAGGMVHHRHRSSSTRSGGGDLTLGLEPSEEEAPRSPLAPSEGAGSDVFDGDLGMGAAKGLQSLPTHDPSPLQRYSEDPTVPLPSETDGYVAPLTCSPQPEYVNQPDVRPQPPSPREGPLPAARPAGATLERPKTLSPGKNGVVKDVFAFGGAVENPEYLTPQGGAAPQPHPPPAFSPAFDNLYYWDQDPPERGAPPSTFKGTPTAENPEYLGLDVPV
T2 sequence (P00533 669-1210 limits assumed): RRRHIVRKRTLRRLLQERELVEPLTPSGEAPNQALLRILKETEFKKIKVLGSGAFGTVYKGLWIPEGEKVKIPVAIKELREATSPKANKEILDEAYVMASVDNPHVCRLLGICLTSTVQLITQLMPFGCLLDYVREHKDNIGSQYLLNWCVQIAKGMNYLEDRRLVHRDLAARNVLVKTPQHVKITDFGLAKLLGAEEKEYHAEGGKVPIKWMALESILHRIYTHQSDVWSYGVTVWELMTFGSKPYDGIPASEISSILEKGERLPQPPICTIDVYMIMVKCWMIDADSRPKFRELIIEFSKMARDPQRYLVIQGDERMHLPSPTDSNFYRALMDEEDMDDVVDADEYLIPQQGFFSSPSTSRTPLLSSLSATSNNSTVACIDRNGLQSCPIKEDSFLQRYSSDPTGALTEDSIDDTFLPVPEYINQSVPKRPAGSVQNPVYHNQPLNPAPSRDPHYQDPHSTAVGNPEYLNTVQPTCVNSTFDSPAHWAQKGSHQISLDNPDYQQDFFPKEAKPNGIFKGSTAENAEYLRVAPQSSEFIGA

One experiment has as its target T1, HER2 intracellular domain (Homo sapiens, UniProt P04626).
T1 construct: made in house; host or cells: SF-21 insect cells, recombinant baculovirus BAC-HER2
Kind of experiment: Determination of HER2 kinase inhibitory activity. Format: biochemical. The note with it: 1.0 μM test compound; poly-Glu:Tyr (4:1) substrate, [γ-32P]ATP, 25° C., 10 min; read-out: HER2 kinase Inhibitory rate (%) at 1.0 μM. The protocol:
Human HER2 gene was cloned by RT-PCR using total RNA prepared from MCF7 cells as a template. The primer used for RT-PCR was prepared from nucleotide sequence (Genbank Accession M11730) information of HER2 gene by adding a nucleotide sequence encoding flag peptide and a restriction enzyme recognition sequence to a nucleotide sequence (2176-3918 of Genbank Accession M11730) encoding the HER2 intracellular domain region, so that the protein contains an N-terminal Flag tag. The primer nucleotide sequence is shown below.
The RT reaction was conducted using SuperScript First-Strand Synthesis System for RT-PCR (Invitrogen) and the PCR reaction was conducted using a KOD-plus kit (TOYOBO). The obtained PCR product was electrophoresed on agarose gel (1%), the DNA fragment amplified by PCR was recovered from the gel, and then digested with restriction enzymes Sal I and Sph I. The DNA treated with the restriction enzymes was electrophoresed on agarose gel (1%), and the obtained DNA fragment was recovered and ligated to plasmid pFASTBAC1 (Invitrogen) digested with restriction enzymes Sal I and Sph I to give expression plasmid pFB-HER2. The nucleotide sequence of the insertion fragment was confirmed and found to be identical with the nucleotide sequence (2176-3918 of Genbank Accession M11730) of HER2 intracellular domain. Furthermore, using BAC-TO-BAC Baculovirus Expression System (Invitrogen), recombinant baculovirus BAC-HER2 was prepared.
SF-21 cells were sown at 1×10^6 cells/mL to Sf-900II SFM medium (1 L, Invitrogen) containing 10% fetal bovine serum (trace), 50 mg/L gentamicin (Invitrogen) and 0.1% Pluronic F-68 (Invitrogen), and shaking culture was performed using a 2 L volume Erlenmeyer flask at 27° C., 100 rpm. After culturing for 24 hrs, recombinant baculovirus BAC-HER2 (13.4 mL) was added, and the mixture was further cultured for 3 days. The culture medium was centrifuged at 2,000 rpm for 5 min. to give virus-infected cells. The infected cells were washed with a phosphate buffered saline (Invitrogen), centrifuged under the same conditions, and the cells were preserved at −80° C. The cryopreserved cells were thawed in ice, suspended in buffer A (50 mM Tris buffer (30 mL, pH 7.4) containing 20% glycerol, 0.15 M NaCl) supplemented with Complete Protease Inhibitor (Boehringer), and ruptured 3 times with a Polytron homogenizer (Kinematica) at 20,000 rpm for 30 sec. The rupture medium was clarified by centrifugation at 40,000 rpm for 30 min. and filtered with a 0.45 μm filter. The filtrate was passed through a column packed with Anti-FLAG M2 Affinity Gel (4 mL, Sigma) at a flow rate of about 0.5 mL/min. The column was washed with buffer A, and eluted with buffer A containing 100 μg/mL of FLAG peptide. The eluate was concentrated with Vivaspin 20 (Vivascience) having a molecular weight cut off of 30K. The concentrate was purified by gel filtration using Hi Load Superdex 200 pg 16/60 (Amersham Bioscience) equilibrated with buffer A. The fractions containing HER2 intracellular domain were collected, glycerol was added to the final concentration of 50% and cryopreserved at −80° C.
A test compound dissolved in dimethyl sulfoxide (DMSO) was diluted with a buffer for kinase reaction (50 mM Tris-HCl (pH7.5), 5 mM MgCl2, 5 mM MnCl2, 2 mM dithiothreitol, 0.01% Tween-20). To this compound solution (10 μL) was added a buffer for kinase reaction (20 μL) containing 5 μg/mL of HER2 intracellular domain obtained in Experimental Example 1B and 12.5 μg/mL of polypeptide substrate poly-Glu:Tyr (4:1) (Sigma). To the obtained mixture was added 20 μL of ATP solution (1.25 μM ATP, 0.05 μCi [γ-^32P]ATP), the mixture was allowed to react at 25° C. for 10 min. and the reaction was quenched with 50 μL of 20% TCA solution. The reaction solution was allowed to stand at 4° C. for 20 min., and the acid insoluble fraction was transferred to GF/C filter (PerkinElmer) using cell harvester (PerkinElmer) and washed with 250 mM phosphoric acid solution. […]
Turning to `Cc1ccc(Oc2ccc(Nc3ncnc4cc(/C=C/CO)[nH]c34)cc2C)cn1` [Example 13, (2E)-3-[4-({3-methyl-4-[(6-methylpyridin-3-yl)oxy]phenyl}amino)-5H-pyrrolo[3,2-d]pyrimidin-6-yl]-2-propen-1-ol], the inhibition at 1 µM stood at 94.9%.

`CCOCCn1ccc2ncnc(Nc3ccc(OCc4cccc(F)c4)c(Cl)c3)c21` [Example 38, N-{3-chloro-4-[(3-fluorobenzyl)oxy]phenyl}-5-(2-ethoxyethyl)-5H-pyrrolo[3,2-d]pyrimidin-4-amine]: the inhibition at 1 µM is 95.9%.

With `Cn1ccc2ncnc(Nc3ccc(OCc4cccc(F)c4)c(Cl)c3)c21` [Example 39, N-{3-chloro-4-[(3-fluorobenzyl)oxy]phenyl}-5-methyl-5H-pyrrolo[3,2-d]pyrimidin-4-amine], the inhibition at 1 µM turned out to be 96.1%.

For the molecule `CC(C)(O)CC(=O)NCCn1ccc2ncnc(Nc3ccc(Oc4cccc(C(F)(F)F)c4)c(Cl)c3)c21` [Example 158, N-{2-[4-({3-chloro-4-[3-(trifluoromethyl)phenoxy]phenyl}amino)-5H-pyrrolo[3,2-d]pyrimidin-5-yl]ethyl}-3-hydroxy-3-methylbutanamide], the inhibition at 1 µM came to 87%.

Take `Cc1cc(Nc2ncnc3ccn(CCNC(=O)CS(C)(=O)=O)c23)ccc1Oc1cccc(OC(F)(F)F)c1` [Example 190, 2-(methylsulfonyl)-N-{2-[4-({3-methyl-4-[3-(trifluoromethoxy)phenoxy]phenyl}amino)-5H-pyrrolo[3,2-d]pyrimidin-5-yl]ethyl}acetamide]: the inhibition at 1 µM stood at 95.9%.

With `CS(=O)(=O)CC(=O)NCCn1ccc2ncnc(Nc3ccc(Oc4cccc(Cl)c4)c(Cl)c3)c21` [Example 191, N-[2-(4-{[3-chloro-4-(3-chlorophenoxy)phenyl]amino}-5H-pyrrolo[3,2-d]pyrimidin-5-yl)ethyl]-2-(methylsulfonyl)acetamide], the inhibition at 1 µM worked out at 100%.

The next experiment concerns the target T2, EGF receptor intracellular domain protein (Homo sapiens, UniProt P00533).
T2 construct: encoding EGF receptor intracellular domain region, so that the protein contains an N-terminal Flag tag; made in house; host or cells: SF-21 insect cells, recombinant baculovirus BAC-EGFR
Kind of experiment: Determination of EGF receptor kinase inhibitory activity. The note with it: 1.0 μM test compound; biotinyl-poly-Glu:Tyr (4:1), AlphaScreen, 25° C., 10 min; read-out: EGF receptor kinase Inhibitory rate (%) at 1.0 μM. Format: biochemical. The protocol: Human EGF receptor gene was cloned by RT-PCR using total RNA prepared from A431 cells as a template. The primer for RT-PCR was prepared from nucleotide sequence (Genbank Accession XM—167493) information of EGF receptor gene by adding a nucleotide sequence encoding flag peptide and a restriction enzyme recognition sequence to a nucleotide sequence (2182-3810 of Genbank Accession XM—167493) encoding EGF receptor intracellular domain region, so that the protein contains an N-terminal Flag tag. The primer nucleotide sequence is shown below.
The RT reaction was conducted using SuperScript First-Strand Synthesis System for RT-PCR (Invitrogen) and the PCR reaction was conducted using a KOD-plus kit (TOYOBO). The obtained PCR product was electrophoresed on agarose gel (1%), the DNA fragment amplified by PCR was recovered from the gel, and then digested with restriction enzymes Sal I and Sph I. The DNA treated with the restriction enzymes was electrophoresed on agarose gel (1%), and the obtained DNA fragment was recovered and ligated to plasmid pFASTBAC1 (Invitrogen) digested with restriction enzymes Sal I and Sph I to give expression plasmid pFB-EGFR. The nucleotide sequence of insertion fragment was confirmed and found to be identical with the nucleotide sequence (2182-3810 of Genbank Accession XM—167493) of EGFR intracellular domain. Furthermore, using BAC-TO-BAC Baculovirus Expression System (Invitrogen), virus stock BAC-EGFR of recombinant baculovirus was prepared.
SF-21 cells were sown at 1×10^6 cells/mL to Sf-900II SFM medium (1 L, Invitrogen) containing 10% fetal bovine serum (trace), 50 mg/L gentamicin (Invitrogen) and 0.1% Pluronic F-68 (Invitrogen), and shaking culture was performed using a 2 L volume Erlenmeyer flask at 27° C., 100 rpm. After culturing for 24 hrs, recombinant baculovirus BAC-EGFR (13.4 mL) was added, and the mixture was further cultured for 3 days. The culture medium was centrifuged at 2,000 rpm for 5 min. to give virus-infected cells. The infected cells were washed with a phosphate buffered saline (Invitrogen), centrifuged under the same conditions, and the cells were preserved at −80° C. The cryopreserved cells were thawed in ice, suspended in buffer A (50 mM Tris buffer (30 mL, pH7.4) containing 20% glycerol, 0.15 M NaCl) supplemented with Complete Protease Inhibitor (Boehringer), and ruptured 3 times with a Polytron homogenizer (Kinematica) at 20,000 rpm for 30 sec. The ruptured medium was clarified by centrifugation at 40,000 rpm for 30 min. and filtered with a 0.45 μm filter. The filtrate was passed through a column packed with Anti-FLAG M2 Affinity Gel (4 mL, Sigma) at a flow rate of about 0.5 mL/min. The column was washed with buffer A, and eluted with buffer A containing 100 μg/mL of FLAG peptide. The eluate was concentrated with Vivaspin 20 (Vivascience) having a molecular weight cut off of 30K. The buffer of this concentrate was exchanged using NAPE 25 column (Amersham Bioscience) equilibrated with buffer A. The fractions containing EGF receptor intracellular domain protein were collected, glycerol was added to the final concentration of 50% and cryopreserved at −80° C.
A test compound dissolved in dimethyl sulfoxide (DMSO) was diluted with a buffer (50 mM Tris-HCl (pH 7.5), 5 mM MgCl2, 5 mM MnCl2, 2 mM dithiothreitol, 0.01% Tween-20). To this compound solution (5 μL) was added a buffer (10 μL) containing 250 ng/mL of EGF receptor intracellular domain protein and 250 ng/mL of biotin labeled polypeptide biotinyl-poly-Glu:Tyr (4:1) (CIS bio International). […]
(In general: Alpha assays give light when donor and acceptor beads are brought close together.)
`Cn1c(/C=C/CO)cc2ncnc(Nc3ccc(OCc4cccc(F)c4)c(Cl)c3)c21` [Example 22, (2E)-3-[4-({3-chloro-4-[(3-fluorobenzyl)oxy]phenyl}amino)-5-methyl-5H-pyrrolo[3,2-d]pyrimidin-6-yl]-2-propen-1-ol]: the inhibition at 1 µM turned out to be 98.5%.

`OCCn1ccc2ncnc(Nc3ccc(OCc4cccc(F)c4)c(Cl)c3)c21` [Example 41, 2-[4-({3-chloro-4-[(3-fluorobenzyl)oxy]phenyl}amino)-5H-pyrrolo[3,2-d]pyrimidin-5-yl]ethanol]: the inhibition at 1 µM was found to be 98.9%.

Regarding `OCCOCCn1ccc2ncnc(Nc3ccc(OCc4cccc(F)c4)c(Cl)c3)c21` [Example 138, 2-{2-[4-({3-chloro-4-[(3-fluorobenzyl)oxy]phenyl}amino)-5H-pyrrolo[3,2-d]pyrimidin-5-yl]ethoxy}ethanol], the inhibition at 1 µM was 99%.

Take `OCCOCCn1ccc2ncnc(Nc3ccc(Oc4cccc(C(F)(F)F)c4)c(Cl)c3)c21` [Example 147, 2-{2-[4-({3-Chloro-4-[3-(trifluoromethyl)phenoxy]phenyl}amino)-5H-pyrrolo[3,2-d]pyrimidin-5-yl]ethoxy}ethanol]: the inhibition at 1 µM is 96%.

For the molecule `CS(=O)(=O)CC(=O)NCCn1ccc2ncnc(Nc3ccc(Oc4cccc(C(F)(F)F)c4)c(Cl)c3)c21` [Example 160, N-{2-[4-({3-chloro-4-[3-(trifluoromethyl)phenoxy]phenyl}amino)-5H-pyrrolo[3,2-d]pyrimidin-5-yl]ethyl}-2-(methylsulfonyl)acetamide], the inhibition at 1 µM stood at 97%.
